Converted amounts (≈) assume the structure as drawn.
How the values were obtained:
Staphylococcus aureus [1] = assay: Antibacterial activity against Staphylococcus aureus NRS120 assessed as inhibition of bacterial growth by CLSI protocol based microdilution method; type: functional
Staphylococcus aureus [2] = assay: Antibacterial activity against Staphylococcus aureus ATCC 29213 assessed as inhibition of bacterial growth by CLSI protocol based microdilution method; type: functional
Staphylococcus aureus [3] = assay: Antibacterial activity against vancomycin resistant Staphylococcus aureus 1 assessed as inhibition of bacterial growth by CLSI protocol based microdilution method; type: functional
Staphylococcus aureus [4] = assay: Antibacterial activity against Staphylococcus aureus NRS119 assessed as inhibition of bacterial growth by CLSI protocol based microdilution method; type: functional
Staphylococcus aureus [5] = assay: Antibacterial activity against Staphylococcus aureus NRS100 (COL) assessed as inhibition of bacterial growth by CLSI protocol based microdilution method; type: functional
[6] = Oral bioavailability in ICR mouse at 50 mg/kg; type: ADME, organism-based; conditions: in vivo
Staphylococcus aureus [7] = assay: Antibacterial activity against Staphylococcus aureus ATCC 27660 assessed as inhibition of bacterial growth by CLSI protocol based microdilution method; type: functional
[8] = Elimination half life in ICR mouse at 50 mg/kg, iv; type: ADME, organism-based; conditions: in vivo, read-out: beta t1/2 (converted)
Staphylococcus aureus [9] = assay: Antibacterial activity against vancomycin resistant Staphylococcus aureus 2 assessed as inhibition of bacterial growth by CLSI protocol based microdilution method; type: functional
Staphylococcus aureus [10] = assay: Antibacterial activity against methicillin resistant Staphylococcus aureus ATCC 43300 assessed as inhibition of bacterial growth incubated for 24 to 48 hrs by spectrophotometric analysis; type: functional; conditions: time 24-48 hrs
Staphylococcus aureus [11] = assay: Potency index, ratio of ciprofloxacin MIC to test compound MIC for antibacterial activity against methicillin resistant Staphylococcus aureus ATCC 43300 assessed as inhibition of bacterial growth incubated for 24 to 48 hrs by spectrophotometric analysis; type: functional; conditions: time 24-48 hrs
Staphylococcus aureus [12] = assay: Potency index, ratio of chloramphenicol MIC to test compound MIC for antibacterial activity against methicillin resistant Staphylococcus aureus ATCC 43300 assessed as inhibition of bacterial growth incubated for 24 to 48 hrs by spectrophotometric analysis; type: functional; conditions: time 24-48 hrs
Staphylococcus aureus [13] = assay: Antibacterial activity methicillin resistant Staphylococcus aureus NRS 382 (USA 100) assessed as inhibition of bacterial growth by broth microdilution method; type: functional
Staphylococcus aureus [14] = assay: Antibacterial activity methicillin resistant Staphylococcus aureus 2658 RCMB assessed as inhibition of bacterial growth by broth microdilution method; type: functional
Staphylococcus aureus [15] = assay: Antibacterial activity methicillin resistant Staphylococcus aureus NRS 385 (USA 500) assessed as inhibition of bacterial growth by broth microdilution method; type: functional
Staphylococcus aureus [16] = assay: Antibacterial activity methicillin resistant Staphylococcus aureus NRS 119 assessed as inhibition of bacterial growth by broth microdilution method; type: functional; conditions: NRS119
Staphylococcus aureus [17] = assay: Antibacterial activity methicillin resistant Staphylococcus aureus NRS123 (USA 400) assessed as inhibition of bacterial growth by broth microdilution method; type: functional
Staphylococcus aureus [18] = assay: Antibacterial activity methicillin resistant Staphylococcus aureus NRS 194 assessed as inhibition of bacterial growth by broth microdilution method; type: functional
Staphylococcus aureus [19] = assay: Antibiofilm activity against methicillin resistant Staphylococcus aureus assessed as reduction in biofilm formation at 2 times of MIC by microtiter plate biofilm formation assay; type: functional; parameters: scale not given: the % may be the effect or the level left
Staphylococcus aureus [20] = assay: Antibacterial activity methicillin resistant Staphylococcus aureus NRS 383 (USA 200) assessed as inhibition of bacterial growth by broth microdilution method; type: functional
[21] = Half-life in rat at 25 mg/kg, po; type: ADME, organism-based; conditions: in vivo
Staphylococcus aureus [22] = assay: Antibacterial activity methicillin resistant Staphylococcus aureus NRS 484 (USA 1100) assessed as inhibition of bacterial growth by broth microdilution method; type: functional
Staphylococcus aureus [23] = assay: Antibacterial activity methicillin resistant Staphylococcus aureus NRS 386 (USA 700) assessed as inhibition of bacterial growth by broth microdilution method; type: functional
Staphylococcus aureus [24] = assay: Antibacterial activity methicillin resistant Staphylococcus aureus NRS 387 (USA 800) assessed as inhibition of bacterial growth by broth microdilution method; type: functional
Staphylococcus aureus [25] = assay: Antibacterial activity methicillin resistant Staphylococcus aureus NRS 108 assessed as inhibition of bacterial growth by broth microdilution method; type: functional
Staphylococcus aureus [26] = assay: Antibacterial activity methicillin resistant Staphylococcus aureus NRS 483 (USA 1000) assessed as inhibition of bacterial growth by broth microdilution method; type: functional
Staphylococcus aureus [27] = assay: Antibacterial activity methicillin resistant Staphylococcus aureus NRS384 (USA 300) assessed as inhibition of bacterial growth by broth microdilution method; type: functional
Staphylococcus aureus [28] = assay: Antimicrobial activity against Staphylococcus aureus Newman assessed as inhibition of bacterial growth incubated for 16 to 20 hrs by CLSI protocol based method; type: functional; conditions: time 16-20 hrs
Staphylococcus aureus [29] = assay: Antimicrobial activity against methicillin resistant Staphylococcus aureus A252 assessed as inhibition of bacterial growth incubated for 16 to 20 hrs by CLSI protocol based method; type: functional; conditions: time 16-20 hrs
Staphylococcus aureus [30] = assay: Antimicrobial activity against methicillin resistant Staphylococcus aureus USA300 assessed as inhibition of bacterial growth incubated for 16 to 20 hrs by CLSI protocol based method; type: functional; conditions: time 16-20 hrs

Oc1ccc(-c2nc(-c3ccc(Oc4ccc(C(F)(F)F)cc4)cc3)no2)cc1
MIC (Staphylococcus aureus [1]): 2 µg/mL (≈ 5.02 µM) | MIC (Staphylococcus aureus [2]): 2 µg/mL (≈ 5.02 µM) | MIC (Staphylococcus aureus [3]): 2 µg/mL (≈ 5.02 µM) | MIC (Staphylococcus aureus [4]): 2 µg/mL (≈ 5.02 µM) | MIC (Staphylococcus aureus [5]): 2 µg/mL (≈ 5.02 µM) | bioavailability [6]: 100% | MIC (Staphylococcus aureus [7]): 2 µg/mL (≈ 5.02 µM) | half-life [8]: 40 h | MIC (Staphylococcus aureus [9]): 2 µg/mL (≈ 5.02 µM)

O=C(/C=C/c1ccc(F)cc1)N1N=C(c2ccncc2)OC1c1cn(-c2ccccc2)nc1-c1ccc(F)cc1 (stereo not given)
MIC (Staphylococcus aureus [10]): 6.25 µg/mL (≈ 11.7 µM) | Ratio (Staphylococcus aureus [11]): 4 | Ratio (Staphylococcus aureus [12]): 8

Cc1nc(-c2ccc(C(C)(C)C)cc2)sc1-c1nnc(N2CC(O)C2)o1
MIC (Staphylococcus aureus [13]): 4 µg/mL (≈ 10.8 µM) | MIC (Staphylococcus aureus [14]): 3.12 µg/mL (≈ 8.42 µM) | MIC (Staphylococcus aureus [15]): 4 µg/mL (≈ 10.8 µM) | MIC (Staphylococcus aureus [16]): 4 µg/mL (≈ 10.8 µM) | MIC (Staphylococcus aureus [17]): 4 µg/mL (≈ 10.8 µM) | MIC (Staphylococcus aureus [18]): 4 µg/mL (≈ 10.8 µM) | Activity (Staphylococcus aureus [19]): 41% | MIC (Staphylococcus aureus [20]): 4 µg/mL (≈ 10.8 µM) | half-life [21]: 5.5 h | MIC (Staphylococcus aureus [22]): 4 µg/mL (≈ 10.8 µM) | MIC (Staphylococcus aureus [23]): 4 µg/mL (≈ 10.8 µM) | MIC (Staphylococcus aureus [24]): 4 µg/mL (≈ 10.8 µM) | MIC (Staphylococcus aureus [25]): 4 µg/mL (≈ 10.8 µM) | MIC (Staphylococcus aureus [26]): 4 µg/mL (≈ 10.8 µM) | MIC (Staphylococcus aureus [27]): 4 µg/mL (≈ 10.8 µM)

O=C(Nc1nnc(-c2ccc(F)cc2)o1)c1ccc(Cl)cc1
MIC (Staphylococcus aureus [28]): 1.28 µg/mL (≈ 4.03 µM) | MIC (Staphylococcus aureus [29]): 1.28 µg/mL (≈ 4.03 µM) | MIC (Staphylococcus aureus [30]): 0.64 µg/mL (≈ 2.01 µM)

Source: ChEMBL document CHEMBL5241069, “A key review on oxadiazole analogs as potential methicillin-resistant Staphylococcus aureus (MRSA) activity: Structure-activity relationship studies” (Eur J Med Chem, 2021)
